In patent publication US9212168B2 (priority 2011, dated 2015):

How the values were obtained:
HCV genotype 1b replicon = HCV genotype 1b replicon assay (Renilla luciferase readout); type: cell-based, hepatitis C virus; settings: for Genotype 1b: HCV genotype 1b replicon; for EC50: Hepatitis C virus, read-out: Genotype 1b
Method in brief: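 Huh7-derived APC144 subgenomic replicon cells carrying Renilla luciferase–NS3-NS5B, seeded 10,000/well without G418, then treated with compound dose-responses for 48 h at 37 °C (0.5% DMSO final). Luciferase signal fitted by 4-parameter model to EC50, reported as pEC50.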

HCV genotype 1a replicon = HCV genotype 1a replicon assay (NS3 protease activity readout); type: cell-based, hepatitis C virus; settings: for Genotype 1a: HCV genotype 1a replicon; for EC50: Hepatitis C virus, read-out: Genotype 1a, HCV genotype 1a replicon
Method in brief: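 Genotype 1a subgenomic replicon cells (APC89, Huh7.5) were treated with compound dose-responses in G418-free medium, 0.5% DMSO final, for 48 or 72 hours at 37° C. Lysate NS3/4a protease activity measured with 15 μM FRET substrate, 20 min at 37° C (ex 340/em 509 nm); EC50 by 4-parameter fit.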

Structure (SMILES) | Genotype 1b (HCV genotype 1b replicon) | Genotype 1a (HCV genotype 1a replicon) | EC50 (HCV genotype 1b replicon) [nM] | EC50 (HCV genotype 1a replicon) [nM]
COC(=O)NC(C(=O)N1CC(C)CC1c1nc(-c2ccc(-c3ccc(NC(=O)c4ccc(N5CCN(C(=O)C(C)(C)CO)CC5C)nc4)cc3OC(F)(F)F)cc2)c[nH]1)C(C)OC (stereo not shown) [Example 13-31] | D (D represents pEC50>10 (EC50<0.1 nM)) | D (D represents pEC50>10 (EC50<0.1 nM)) | – | –
COC(=O)NC(CC1CCOCC1)C(=O)N1C[C@@H](C)C[C@H]1c1nc(-c2ccc(-c3cc(Cl)c(NC(=O)c4ccc(N5CCN(C(=O)C(C)(C)C)C[C@H]5C)nc4)cc3OC(F)(F)F)cc2)c[nH]1 (stereo partly shown) [Example 13-34] | – | – | < 0.1 | < 0.1
COC(=O)NC(C(=O)N1C[C@@H](C)C[C@H]1c1nc(-c2ccc(-c3cc(Cl)c(NC(=O)c4ccc(N5CCN(C(=O)C(C)(C)C)C[C@H]5C)nc4)cc3OC(F)(F)F)cc2)c[nH]1)C1CCC(=O)CC1 (stereo partly shown) [Example 13-35] | – | – | < 0.1 | < 0.1
COC(=O)NC(C(=O)N1C[C@@H](C)C[C@H]1c1nc(-c2ccc(-c3cc(Cl)c(NC(=O)c4ccc(N5CCN(C(=O)C(C)(C)C)C[C@H]5C)nc4)cc3OC(F)(F)F)cc2)c[nH]1)C1CCCOC1 (stereo partly shown) [Example 13-38] | – | – | < 0.1 | < 0.1
COC(=O)N[C@H](C(=O)N1C[C@@H](C)C[C@H]1c1nc(-c2ccc(-c3cc(Cl)c(NC(=O)c4ccc(N5CCN(C(=O)C(C)(C)C)C[C@H]5C)nc4)cc3OC(F)(F)F)cc2)c[nH]1)C1C[C@@H](C)O[C@@H](C)C1 (stereo partly shown) [Example 13-42] | – | – | < 0.1 | < 0.1
COC(=O)N[C@H](C(=O)N1C[C@@H](C(N)=O)C[C@H]1c1nc(-c2ccc(-c3cc(Cl)c(NC(=O)c4ccc(N5CCN(C(=O)C(C)(C)CO)C[C@H]5C)nc4)cc3OC(F)(F)F)cc2)c[nH]1)C(C)C [Example 15-3] | – | – | < 0.1 | < 0.1
COC(=O)N[C@H](C(=O)N1C[C@@H](C#N)C[C@H]1c1nc(-c2ccc(-c3cc(Cl)c(NC(=O)c4ccc(N5CCN(C(=O)C(C)(C)C)C[C@H]5C)nc4)cc3OC(F)(F)F)cc2)c[nH]1)C(C)C [Example 15-11] | – | – | < 0.1 | < 0.1
COC(=O)N[C@H](C(=O)N1C[C@@H](C#N)C[C@H]1c1nc(-c2ccc(-c3cc(Cl)c(NC(=O)c4ccc(N5CCN(C(=O)C(C)(C)CO)C[C@H]5C)nc4)cc3OC(F)(F)F)cc2)c[nH]1)C(C)C [Example 15-12] | – | – | < 0.1 | < 0.1
COC(=O)N[C@H](C(=O)N1C[C@@H](OC)C[C@H]1c1nc(-c2ccc(-c3cc(Cl)c(NC(=O)c4ccc(N5CCN(C(=O)C(C)(C)C)C[C@H]5C)nc4)cc3OC(F)(F)F)cc2)c[nH]1)C(C)(C)O [Example 16-1] | D (D represents pEC50>10 (EC50<0.1 nM)) | D (D represents pEC50>10 (EC50<0.1 nM)) | – | –
COC(=O)N[C@H](C(=O)N1C[C@@H](OC)C[C@H]1c1nc(-c2ccc(-c3cc(Cl)c(NC(=O)c4ccc(N5CCN(C(=O)C(C)(C)C)C[C@H]5C)nc4)cc3OC(F)(F)F)cc2)c[nH]1)[C@H](C)O [Example 16-2] | D (D represents pEC50>10 (EC50<0.1 nM)) | D (D represents pEC50>10 (EC50<0.1 nM)) | – | –
COC(=O)NC(C(=O)N1CC(OC)CC1c1nc(-c2ccc(-c3cc(Cl)c(NC(=O)c4ccc(N5CCN(C(=O)C(C)(C)C)CC5C)nc4)cc3OC(F)(F)F)cc2)c[nH]1)C(C)OC (stereo not shown) [Example 16-3] | D (D represents pEC50>10 (EC50<0.1 nM)) | D (D represents pEC50>10 (EC50<0.1 nM)) | – | –
COC(=O)NC(C(=O)N1CC(OC)CC1c1nc(-c2ccc(-c3cc(F)c(NC(=O)c4ccc(N5CCN(C(=O)C(C)(C)C)CC5C)nc4)cc3OC(F)(F)F)cc2)c[nH]1)C(C)O (stereo not shown) [Example 16-4] | D (D represents pEC50>10 (EC50<0.1 nM)) | D (D represents pEC50>10 (EC50<0.1 nM)) | – | –
COC(=O)NC(C(=O)N1CC(OC)CC1c1nc(-c2ccc(-c3cc(F)c(NC(=O)c4ccc(N5CCN(C(=O)C(C)(C)C)CC5C)nc4)cc3OC(F)(F)F)cc2)c[nH]1)C(C)OC (stereo not shown) [Example 16-5] | D (D represents pEC50>10 (EC50<0.1 nM)) | D (D represents pEC50>10 (EC50<0.1 nM)) | – | –
COC(=O)NC(C(=O)N1CC(OC)CC1c1nc(-c2ccc(-c3cc(Cl)c(NC(=O)c4ccc(N5CCN(C(=O)C(C)(C)CO)CC5C)nc4)cc3OC(F)(F)F)cc2)c[nH]1)C(C)O (stereo not shown) [Example 16-7] | D (D represents pEC50>10 (EC50<0.1 nM)) | D (D represents pEC50>10 (EC50<0.1 nM)) | – | –
COC(=O)NC(C(=O)N1CC(OC)CC1c1nc(-c2ccc(-c3cc(F)c(NC(=O)c4ccc(N5CCN(C(=O)C(C)(C)CO)CC5C)nc4)cc3OC(F)(F)F)cc2)c[nH]1)C(C)OC (stereo not shown) [Example 16-13] | D (D represents pEC50>10 (EC50<0.1 nM)) | D (D represents pEC50>10 (EC50<0.1 nM)) | – | –
COC(=O)NC(C(=O)N1CC(OC)CC1c1nc(-c2ccc(-c3cc(F)c(NC(=O)c4ccc(N5CCN(C(=O)C(C)(C)CO)CC5C)nc4)cc3OC(F)(F)F)cc2)c[nH]1)C(C)(C)O (stereo not shown) [Example 16-14] | D (D represents pEC50>10 (EC50<0.1 nM)) | D (D represents pEC50>10 (EC50<0.1 nM)) | – | –
COC(=O)NC(C(=O)N1CC(OC)CC1c1nc(-c2ccc(-c3ccc(NC(=O)c4ccc(N5CCN(C(=O)C(C)(C)CO)CC5C)nc4)cc3OC(F)(F)F)cc2)c[nH]1)C(C)O (stereo not shown) [Example 16-15] | D (D represents pEC50>10 (EC50<0.1 nM)) | C (C represents pEC50 between and 9 and about 10, (EC50 between 1 nM and 0.1 nM)) | – | –
COC(=O)N[C@H](C(=O)N1[C@@H](C)CC[C@H]1c1nc(-c2ccc(-c3cc(Cl)c(NC(=O)c4ccc(N5CCN(C(=O)C(C)(C)C)C[C@H]5C)nc4)cc3C(F)(F)F)cc2)c[nH]1)C(C)C [Example 17-2] | D (D represents pEC50>10 (EC50<0.1 nM)) | D (D represents pEC50>10 (EC50<0.1 nM)) | – | –
COC(=O)N[C@H](C(=O)N1[C@@H](C)CC[C@H]1c1nc(-c2ccc(-c3cc(Cl)c(NC(=O)c4ccc(N5CCN(C(=O)C(C)(C)C)C[C@H]5C)nc4)cc3OC(F)(F)F)cc2)c[nH]1)C(C)C [Example 17-3] | D (D represents pEC50>10 (EC50<0.1 nM)) | D (D represents pEC50>10 (EC50<0.1 nM)) | – | –
COC(=O)NC(C(=O)N1C(C)CCC1c1nc(-c2ccc(-c3cc(Cl)c(NC(=O)c4ccc(N5CCN(C(=O)C6CC6(C)C)CC5C)nc4)cc3OC(F)(F)F)cc2)c[nH]1)C(C)C (stereo not shown) [Example 17-4] | D (D represents pEC50>10 (EC50<0.1 nM)) | D (D represents pEC50>10 (EC50<0.1 nM)) | – | –
COC(=O)N[C@H](C(=O)N1[C@@H](C)CC[C@H]1c1nc(-c2ccc(-c3cc(Cl)c(C(=O)Nc4ccc(N5CCN(C(=O)C(C)(C)C)C[C@H]5C)nc4)cc3OC(F)(F)F)cc2)c[nH]1)C1CCOCC1 [Example 18-5] | D (D represents pEC50>10 (EC50<0.1 nM)) | D (D represents pEC50>10 (EC50<0.1 nM)) | – | –
COC(=O)N[C@H](C(=O)N1[C@@H](C)CC[C@H]1c1nc(-c2ccc(-c3cc(Cl)c(C(=O)Nc4ccc(N5CCN(C(=O)C(C)(C)C)C[C@H]5C)nc4)cc3OC(F)(F)F)cc2)c[nH]1)C1C[C@@H](C)O[C@@H](C)C1 (stereo partly shown) [Example 18-6] | D (D represents pEC50>10 (EC50<0.1 nM)) | D (D represents pEC50>10 (EC50<0.1 nM)) | – | –
COC(=O)N[C@H](C(=O)N1C[C@@H](C)C[C@H]1c1nc(-c2ccc(-c3cc(Cl)c(NC(=O)c4ccc(N5CCN(C(=O)C(C)(C)C)C[C@H]5C)nc4)cc3C(F)(F)F)cc2)c[nH]1)C1CCOCC1 [Example 19-2] | D (D represents pEC50>10 (EC50<0.1 nM)) | D (D represents pEC50>10 (EC50<0.1 nM)) | – | –
COC(=O)NC(C(=O)N1CC(C)CC1c1nc(-c2ccc(-c3cc(Cl)c(NC(=O)c4ccc(N5CCN(C(=O)C(C)(C)C)CC5C)nc4)cc3C(F)(F)F)cc2)c[nH]1)C1CC(C)OC(C)C1 (stereo not shown) [Example 19-9] | D (D represents pEC50>10 (EC50<0.1 nM)) | D (D represents pEC50>10 (EC50<0.1 nM)) | – | –
COC(=O)N[C@H](C(=O)N1C[C@@H](C)C[C@H]1c1nc(-c2ccc(-c3cc(Cl)c(NC(=O)c4ccc(N5CCN(C(=O)C(C)(C)C)C[C@H]5C)nc4)cc3OC(F)(F)F)cc2)c(CO)[nH]1)C1CCOCC1 [Example 20-2] | D (D represents pEC50>10 (EC50<0.1 nM)) | D (D represents pEC50>10 (EC50<0.1 nM)) | – | –
COC(=O)N[C@H](C(=O)N1C[C@@H](C)C[C@H]1c1nc(-c2ccc(-c3cc(Cl)c(NC(=O)c4ccc(N5CCN(C(=O)C(C)(C)CO)C[C@H]5C)nc4)cc3OC(F)(F)F)cc2)c(CO)[nH]1)C1CCOCC1 [Example 20-3] | D (D represents pEC50>10 (EC50<0.1 nM)) | D (D represents pEC50>10 (EC50<0.1 nM)) | – | –
COC(=O)N[C@H](C(=O)N1C[C@@H](C)C[C@H]1c1nc(-c2ccc(-c3cc(Cl)c(NC(=O)c4ccc(N5CCN(C(=O)C(C)(C)C)C[C@@H]5C)nc4)cc3OC(F)(F)F)cc2)c[nH]1)C1CCOCC1 [Example 20-4] | D (D represents pEC50>10 (EC50<0.1 nM)) | D (D represents pEC50>10 (EC50<0.1 nM)) | – | –
COC(=O)N[C@H](C(=O)N1C[C@@H](C)C[C@H]1c1nc(-c2ccc(-c3cc(Cl)c(NC(=O)c4ccc(N5CCN(C(=O)C(C)(C)C)[C@@H](C)C5)nc4)cc3OC(F)(F)F)cc2)c[nH]1)C1CCOCC1 [Example 20-5] | D (D represents pEC50>10 (EC50<0.1 nM)) | D (D represents pEC50>10 (EC50<0.1 nM)) | – | –
COC(=O)N[C@H](C(=O)N1C[C@@H](C)C[C@H]1c1nc(-c2ccc(-c3cc(Cl)c(NC(=O)c4ccc(N5CCN(C(=O)C(C)(C)C)[C@H](C)C5)nc4)cc3OC(F)(F)F)cc2)c[nH]1)C1CCOCC1 [Example 20-6] | D (D represents pEC50>10 (EC50<0.1 nM)) | D (D represents pEC50>10 (EC50<0.1 nM)) | – | –
